Source: US20220281930A1, “COMPOSITIONS AND METHODS FOR THE TREATMENT OF PATHOLOGICAL PAIN AND ITCH” (DUKE UNIVERSITY, priority 2019, published 2022)

Tests used:
[1] = tested on: ß-catenin (ß-cat); experiment: Phosphoproteomics in rat primary cortical neurons, ß-cat; format: cell-based; settings: 1 μM KP
Protocol: Cultured rat primary cortical neurons were treated with either vehicle DMSO (0.1%) or 1 μM KP for 1 h/24 h. Cells were lysed in non-detergent-containing buffer (Tris.Cl pH8 50 mM, NaCl 150 mM, 0.5% Phosphatase Inhibitor (Pierce #88667) and Protease Inhibitor (Roche #11836153001)). 500 μL was removed and solid urea was added to a final concentration of 8M. Samples were sonicated for further solubilization. After clearing of insoluble material by centrifugation, protein concentration was measured by Bradford assay. 250 μg of total protein was removed from each sample and solubilization buffer was added to normalize all samples to 0.93 μg/μL protein. Samples were then spiked with bovine alpha-casein to 30 fmol/μg of total protein. Samples were reduced with 10 mM DTT at 32° C. for 45 min and then alkylated with 20 mM iodoacetamide at room temperature for 30 min. […]
TiO2 Enrichment. […] After cleanup using a C18 STAGE tip, and resuspension in 2% acetonitrile, 0.1% TFA, 10 mM citric acid samples were quantified.
Quantitative analysis of Phosphopeptide Enriched Samples. Quantitative LC-MS/MS was performed in singlicate (4 uL=33% of the total sample each injection) for phosphopeptide-enriched samples using a nanoAcquity UPLC system (Waters Corp) coupled to a Thermo QExactive Plus high resolution accurate mass tandem mass spectrometer (Thermo) via a nanoelectrospray ionization source. […]

[2] = biological target: T1, GSK3β (Rattus norvegicus, UniProt P18266); experiment: DARTS assay, GSK3β; format: binding; settings: 20 μM KP; independent of detergent treatment
T1 construct: endogenous in cells; host or cells: primary rat cortical neurons
Protocol: Cultured primary rat cortical neurons were treated with either vehicle DMSO (0.1%) or 20 μM KP for 30 h. Cells were lysed in ice-cold lysis buffer (Tris.Cl pH8 50 mM, NaCl 150 mM, NP40 0.5%, N-dodecyl-b-D-maltoside 0.5%, Phosphatase Inhibitor (Pierce #88667) and Protease Inhibitor (Roche #11836153001)). Protein concentrations were determined by Bio-Rad DC Protein Assay kit using bovine albumin as standard. All steps were performed on ice. Samples were warmed to room temperature and digested with pronase (final concentration 1:500) for 30 min at 30° C. Digestion was halted using 0.5M EDTA. Only proteins not bound to KP were digested. The protein mixture was dialyzed using dialysis cassettes (Thermo Fisher 66203, 2K MWCO) and analyzed by LC-MS/MS method to identify proteins that are bound to KP, the latter step carried out in the Duke Proteomics Core Laboratory.
A drug affinity responsive target stability (DARTS) assay (Lomenick, et al., 2009, Proc Natl Acad Sci USA 106:21984-21989) was used to study direct binding of KP to GSK3ß (FIG. 8A) in primary cortical neurons. The findings were consistent with previous reports in cell lines (Knockaert, et al., 2002, The Journal of biological chemistry 277:25493-25501) yet novel in primary neurons. […]

T1 sequence (P18266 whole entry): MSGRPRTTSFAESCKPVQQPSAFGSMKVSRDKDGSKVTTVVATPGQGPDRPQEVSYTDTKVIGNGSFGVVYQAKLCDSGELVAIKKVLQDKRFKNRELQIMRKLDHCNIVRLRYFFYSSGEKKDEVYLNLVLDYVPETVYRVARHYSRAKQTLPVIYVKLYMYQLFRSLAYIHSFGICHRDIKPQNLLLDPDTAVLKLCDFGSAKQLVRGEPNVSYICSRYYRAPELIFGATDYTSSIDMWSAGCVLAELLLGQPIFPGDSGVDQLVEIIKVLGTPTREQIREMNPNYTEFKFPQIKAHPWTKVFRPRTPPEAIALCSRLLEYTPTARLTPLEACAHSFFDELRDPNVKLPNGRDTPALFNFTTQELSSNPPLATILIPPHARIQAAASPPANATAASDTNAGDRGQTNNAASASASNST

SMILES: O=C1Cc2c([nH]c3ccc(Br)cc23)-c2ccccc2N1 [kenpaullone, 9-bromo-7,12-dihydro-indolo [3,2-d] [1]benzazepin-6(5H)-one]
- differential phosphorylation of ß-cat [1]: not significantly differentially phosphorylated
- binding of KP to GSK3ß [2]: documented
